Data reported in the METLIN SMRT retention time set (Domingo-Almenara et al. 2019).

Assay: gradient 5% acetonitrile 3 min, to 50% in 2 min, to 85% in 15 min, held 3 min, 100 µL/min
Conditions: column: Zorbax Extend-C18 2.1 x 50 mm; eluents: water / acetonitrile, 0.1% formic acid
Outline: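 Using water and acetonitrile that each contained 0.1% formic acid, mixtures of ~100 pure standards were separated at 100 μL/min on a Zorbax Extend-C18 column (2.1 × 50 mm, 1.8 μm). The HPLC fed a quadrupole time-of-flight mass spectrometer working in positive and negative ionization mode, with dead and dwell volumes of 40 μL and 900 μL. Data were acquired over 3 months. Retention time was read from computationally picked adduct peaks after manual inspection of each.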

| SMILES | RP-LC retention time |
| --- | --- |
| CCC(=O)N1CCc2cc(N3CC(C(=O)NC(C)CC)CC3=O)ccc21 (centres undefined) | 669 s |
| Cc1c(C(=O)N2CCN(C(=O)c3ccco3)CC2)[nH]c2ccccc12 | 729 s |
| CCc1nc(NC(=O)Cn2nc3c(cc2=O)CCCC3)sc1C | 764 s |
| CCc1ccc2[nH]c3c(c(=O)c2c1)CN(CC(=O)NC1CCCCC1)CC3 | 630 s |
| CCc1cc(=O)n(CC(=O)N2CCN(c3ccccc3F)CC2)c(N2CCOCC2)n1 | 761 s |
| Cn1c(C2CCN(C(=O)c3cc4c(s3)CCCC4)C2)nc2cccnc21 (centres undefined) | 797 s |
| O=C(c1cccnc1)N1CCC(COCc2ccccc2)CC1 | 747 s |
| Cc1ccc(-n2ncc3c(NCCN(C)C)ncnc32)cc1C | 648 s |
| Cc1ccc(NC(=O)NCC2CCOCC2)c(C)c1 | 713 s |
| COc1ccc(C)cc1NC(=O)Cn1c(=O)c(CCC(=O)NCC(C)C)nc2ccccc21 | 852 s |
| Cc1ccc(N2CC(c3nc(-c4ccc(CNC(=O)C5CC5)s4)no3)CC2=O)cc1C (centres undefined) | 874 s |
| Cc1nc([C@@H]2CN(C(=O)c3cc(C4CC4)[nH]n3)C[C@H]2C(N)=O)n[nH]1 | 540 s |
| O=C(Cn1ncc2c(N3CCN(c4ccccn4)CC3)ncnc21)Nc1ccccc1C(F)(F)F | 610 s |
| Cc1cc(C)n2nc(SCC(=O)Nc3ccccc3C(F)(F)F)nc2n1 | 753 s |
| O=C(c1ccc2c(c1)OCO2)N1CCC2(CC1)N(c1ccccc1)C(=O)CS2(=O)=O | 685 s |
| O=S1(=O)C[C@H](N2CCN(c3ccccn3)CC2)[C@@H](S(=O)(=O)c2ccc(F)cc2)C1 | 1040 s |
| Cc1noc(C)c1CN1CCN(C(=O)c2cc(-c3ccco3)on2)CC1 | 572 s |
| COc1ccc(-c2[nH]ncc2CN2CCC3(CCC3O)CC2)cc1 (centres undefined) | 584 s |
| CCCCN(Cc1nc2nc(C)cc(C)n2n1)C(=O)c1ccco1 | 720 s |
| COc1ccc(NC(=O)N2[C@H]3CC[C@@H]2c2cnc(C)nc2C3)c(C)c1 | 645 s |
| CC(C)CC(=O)NC(Cc1ccccc1)c1nnc(N2CCN(C)CC2)o1 (centres undefined) | 621 s |
| COCc1cc(=O)n(Cc2cccc(F)c2)c(N2CCCC2)n1 | 806 s |

| SMILES | RP-LC retention time |
| --- | --- |
| CC(C)(C)c1cc(NC(=O)COc2ccccc2F)n(CCO)n1 | 759 s |
| O=C(c1ccco1)N1[C@H]2CC[C@@H]1c1cnc(-c3ccc(F)cc3)nc1C2 | 858 s |
| CCOc1ccc2nc(Nc3nc(C)cc(C(F)(F)F)n3)nc(C)c2c1 | 753 s |
| CCOC(=O)c1nc(N2CCCC(C)C2)c2ccccc2n1 (centres undefined) | 759 s |
| CCCN1CCc2cc(O)cc3c2[C@H]1Cc1ccc(O)c(O)c1-3 | 646 s |
| COCCCNC(=O)C1c2cc(OC)c(OC)cc2C(=O)N(C)C1c1cccs1 (centres undefined) | 676 s |
| CC1=C(c2ccc(C(C)C)cc2)S(=O)(=O)N=C1N1CCC(NC(=O)CCC(C)C)CC1 | 1020 s |
| CCCNc1cc(N2CCC(CCC(=O)NCc3ccc(F)cc3F)CC2)ncn1 | 694 s |
| CCCc1cc(C2CCCN2C(=O)c2c(OC)cccc2OC)no1 (centres undefined) | 898 s |
| Cc1nc(C(=O)Nc2cccc(F)c2)c(C)n1C1CCN(S(C)(=O)=O)CC1 | 706 s |
| O=C(c1cnccn1)N1CCC2(CC1)N=C(c1ccccc1)NO2 | 641 s |
| O=C(NCC1CCCCC1)c1ccc(-c2nc3cccnc3n2C2CCCCC2)cc1 | 1130 s |
| COc1cc(NC(=O)Cn2c(=O)n(-c3ccccc3)c(=O)c3c2cc(C)n3C)cc(OC)c1 | 804 s |
| COC(=O)C(=Cc1ccccc1[N+](=O)[O-])C(=O)OC | 883 s |
| O=C(CC1=CCCCC1)N1CCC(C2CCNC2)CC1 (centres undefined) | 602 s |
| COc1cc2c(cc1CNC(=O)Cn1cc(C(=O)C(C)C)c3ccccc31)OCCCO2 | 893 s |
| Cc1cc(C)cc(-n2c(CN3CCN(C(=O)Nc4ccc5c(c4)OCCO5)CC3)nc3cccnc32)c1 | 693 s |
| O=C1CN(c2ccccc2NC(=O)c2ccc[nH]c2=O)CCN1 | 588 s |
| Cc1cc(C)n(-c2ccnc(N3CCC(C(=O)NCCN4CCCCC4)CC3)n2)n1 | 601 s |
| CCCN1CCN(C(=O)C2CCCN(S(=O)(=O)c3cc(-c4noc(C)n4)cs3)C2)CC1 (centres undefined) | 638 s |
| O=S(=O)(CCc1ccccc1)N1CCCn2nc(-c3cccs3)cc2C1 | 988 s |

More lines, now with the values ahead:

| RP-LC retention time | SMILES |
| --- | --- |
| 718 s | Cc1ccc(CN2CCN(C3CCN(C(=O)c4ccc(Br)o4)CC3)C(=O)C2=O)cc1 |
| 548 s | CCOc1cccc(CNC(=O)c2nc3cccnc3n(CC)c2=O)c1 |
| 916 s | CCN1c2cc(Cl)ccc2C(=O)NC12CCN(C(=O)Nc1cc(C)ccc1OC)CC2 |
| 1040 s | CCc1ccccc1NC(=O)CSc1cc(N2CCN(c3ccccc3OC)CC2)ncn1 |
| 597 s | CCC(=O)Nc1ccc(CCc2nc3ccc(C(=O)NCc4ccco4)cc3[nH]2)cc1 |
| 740 s | COc1cccc(-c2cc(C(=O)N3CCC(NC(=O)c4cccc(Cl)c4)CC3)[nH]n2)c1 |
| 833 s | CCCNC(=O)N(C)CCc1noc(COc2ccc(Cl)cc2)n1 |
| 622 s | COc1ccc(CNC(=O)Cc2nnc(-c3ccccn3)o2)cc1OC |
| 743 s | COc1ccc(-c2c(C)noc2NC(C)=O)cc1S(=O)(=O)Nc1ccc(F)cc1F |
| 998 s | COc1ccc(OC)c(S(=O)(=O)N2CCc3nc(-c4ccccc4)ncc3C2)c1 |
| 1010 s | Fc1ccc(-c2nc(-c3cn(Cc4cccc(F)c4)nn3)no2)cc1 |
| 885 s | O=C(Cc1ccc(F)cc1)NCc1ccc(-c2nc(C3CC3)no2)s1 |
| 653 s | CN(C)C(CNC(=O)c1cc(-c2ccccc2)on1)c1ccco1 (centres undefined) |
| 919 s | Cc1cccc(CN2CCCn3nc(C(=O)NC(C)Cc4ccco4)cc3C2=O)c1 (centres undefined) |
| 688 s | Cc1nc(-c2cccc(C(=O)N3CCN(c4nc5cccnc5o4)CC3)c2)no1 |
| 786 s | Cc1ccc(CNC(=O)C2CCCN2S(=O)(=O)c2cc3c(cc2Cl)NC(=O)CO3)cc1 (centres undefined) |
| 863 s | CCn1c(=O)sc2cc(S(=O)(=O)N3CCC(C(=O)Nc4ccc5c(c4)OCO5)CC3)ccc21 |
| 677 s | CN1C(=O)c2cccn2CC1C(=O)Nc1ccc(F)cc1 (centres undefined) |
| 626 s | CN(C)S(=O)(=O)c1ccc(-n2cnc(C(=O)N3CCN(Cc4ccccc4)CC3)c2)cc1 |
| 835 s | CCn1cc(-c2nc(CC(=O)NCc3ccc4c(c3)OCO4)cs2)c2cccnc21 |
| 1010 s | CCc1ccccc1N(C)C(=O)c1cc2c(=O)n(CC)c3ccccc3n2n1 |
| 968 s | Cc1ccc(-c2ncc(NC(=O)C(C)(C)C)cn2)cc1 |
| 604 s | Cc1ccc(CC(=O)Nc2ccc3nc(N4CCN(CC(=O)N(C)C)CC4)cc(C(=O)O)c3c2)cc1 |

| RP-LC retention time | SMILES |
| --- | --- |
| 669 s | CC(C)c1ccc(NC(=O)C2(Cc3cccnc3)CCCCC(=O)N2)cc1 (centres undefined) |
| 1340 s | CCOc1ccc(-c2csc(Cc3nc(-c4cccc(Cl)c4)no3)n2)cc1 |
| 949 s | O=C(c1nnn2c1COC(c1ccc(Cl)cc1)C2)N1CCSCC1 (centres undefined) |
| 789 s | C=CCn1c(C)c(CC(=O)N2CCCC2)c(=O)n2nc(-c3ccc(C)cc3)nc12 |
| 904 s | O=C(NCCc1c[nH]c2ccc(Cl)cc12)c1cc2n(n1)CCCN(Cc1ccccc1)C2=O |
| 795 s | O=C(CN1CCC(c2nc(-c3ccccc3)no2)CC1)Nc1ccccc1Br |
| 698 s | CCOC(=O)Cc1ccc(NC(=O)Nc2cccn3cnnc23)cc1 |
| 921 s | Cc1cccc(CNC(=O)C2(c3ccc(NS(C)(=O)=O)cc3)CCCCC2)c1 |
| 777 s | CC(C)NC(=O)Cc1nnc2cc(-c3nc(C4CC4)no3)ccn12 |
| 763 s | COc1ccc(NC(=O)CCOc2ccccc2)cc1 |
| 682 s | CCn1cc(-c2ccncc2)cc1C(=O)NCc1ccccc1Br |
| 860 s | CCCn1cc(S(=O)(=O)Nc2cc(OC)cc(OC)c2)c2cccnc21 |
| 869 s | Cc1ccccc1NC(=O)C1C(=O)NC2(C)CC1c1ccccc1O2 (centres undefined) |
| 650 s | NC(=O)Cc1ccc(NS(=O)(=O)/C=C/c2ccccc2)cc1 |
| 975 s | COc1ccc(NC(=O)CN2c3ccc(F)cc3-c3ccccc3S2(=O)=O)c(OC)c1 |
| 870 s | CCc1cccc(NC(=O)C2CCCN(S(=O)(=O)c3cc(-c4noc(C)n4)cs3)C2)c1 (centres undefined) |
| 1210 s | O=S(=O)(NCCc1ccccc1)c1ccccc1-c1nc(-c2ccccc2)no1 |
| 923 s | Cc1ccc(NC(=O)Cn2nc3c(Oc4ccccc4C)nccn3c2=O)cc1C |
| 714 s | O=S(=O)(c1ccc2c(c1)CCC2)N1CCCn2nc(-c3cccnc3)cc2C1 |
| 897 s | COc1cc(OC)cc(C(=O)Nc2nc(-c3ccc4c(c3)NC(=O)CO4)cs2)c1 |
| 744 s | O=C(Nc1c(C(=O)N2CCN(c3ccccn3)CC2)oc2ccccc12)c1cccc([N+](=O)[O-])c1 |
| 1000 s | CN(C)S(=O)(=O)c1cccc(-c2nnc(-c3ccc(Cl)cc3)o2)c1 |
| 825 s | CN(C)c1cc(-n2cnc(C(=O)NCc3ccc(Cl)cc3)c2)ncn1 |
